The values that follow come from PMC10350923, “In Vitro and In Vivo Biological Activities of Dipicolinate Oxovanadium(IV) Complexes” (Journal of Medicinal Chemistry, 2023).

Series [1] concerns HCT116 (colorectal carcinoma cell line). The experiment in a line: MTS cell viability assay, HCT116. The class given is cell-based, human. The following applies: Homo sapiens, HCT-116, 48 h of exposure, mean ± SEM.
The subject of series [2] is HCT116-DoxR (doxorubicin-resistant colorectal carcinoma cell line). The following applies: doxorubicin in resistant line; cited from earlier work.
Series [3] concerns A2780 (ovarian carcinoma cell line). As to the kind of experiment: MTS cell viability assay, A2780. The class given is cell-based, human. The following applies: Homo sapiens, A2780, 48 h of exposure, mean ± SEM.
Series [4] has as its system HCT116-DoxR cells. As to the kind of experiment: Alexa Fluor 488-annexin V/PI apoptosis assay, flow cytometry. It counts as cell-based, human. The following applies: 48 h, complexes at IC50, cisplatin 5 μM, Dox 6 μM.
For series [5], the system named is HCT116-DoxR cells. The experiment in a line: Autophagy induction, Green Detection Reagent, flow cytometry. The following applies: 48 h, complexes at IC50, cisplatin 5 μM, Dox 6 μM.
The subject of series [6] is HCT116-DoxR cells. The experiment in a line: Cell cycle progression, PI, flow cytometry. The following applies: HCT116-DoxR, 3, 9, 24, 32 h; complexes at IC50, cisplatin 5 μM, Dox 6 μM.

Bounds are passed on as bounds.

In series [1], `COc1cccc2c1C(=O)c1c(O)c3c(c(O)c1C2=O)C[C@@](O)(C(=O)CO)C[C@@H]3O[C@H]1C[C@H](N)[C@H](O)[C@H](C)O1` [doxorubicin, reference compound] had an IC50 of 0.5 ± 0.1 µM. Also, in series [2], the IC50 was over 6 µM. This compound showed an IC50 in series [3] of 0.1 ± 0.04 µM. Besides, in the series on HCT116-DoxR cells [4], the early apoptosis is reported as 19.0 ± 4.4%, the necrosis came out at 11.2 ± 2.0%, the “percentage of apoptosis (total)” value worked out at 34% and the viable cells is 54.9 ± 4.3%. Further, in the series with HCT116-DoxR cells [4] (listed as Dox), the necrosis was 11% and the viable cells entry is reported as “about 55%”. For the same compound, the “increase of autophagic vesicles over the control” value in the series with HCT116-DoxR cells [5] is about 2.3 fold. Further, the “cell cycle arrest / cytostatic effect” value with HCT116-DoxR cells [6] is recorded as “did not occur”.
